{
  "source": "ChEMBL document CHEMBL1144692",
  "about": "“Alkaloids from stems and leaves of Stemona japonica and their insecticidal activities” (J Nat Prod, 2008)",
  "key": {"[1]": {"target": "T1, Nicotinic acetylcholine receptor alpha1 subunit (Heliothis virescens, UniProt O46128)", "T1 sequence (O46128 whole entry)": "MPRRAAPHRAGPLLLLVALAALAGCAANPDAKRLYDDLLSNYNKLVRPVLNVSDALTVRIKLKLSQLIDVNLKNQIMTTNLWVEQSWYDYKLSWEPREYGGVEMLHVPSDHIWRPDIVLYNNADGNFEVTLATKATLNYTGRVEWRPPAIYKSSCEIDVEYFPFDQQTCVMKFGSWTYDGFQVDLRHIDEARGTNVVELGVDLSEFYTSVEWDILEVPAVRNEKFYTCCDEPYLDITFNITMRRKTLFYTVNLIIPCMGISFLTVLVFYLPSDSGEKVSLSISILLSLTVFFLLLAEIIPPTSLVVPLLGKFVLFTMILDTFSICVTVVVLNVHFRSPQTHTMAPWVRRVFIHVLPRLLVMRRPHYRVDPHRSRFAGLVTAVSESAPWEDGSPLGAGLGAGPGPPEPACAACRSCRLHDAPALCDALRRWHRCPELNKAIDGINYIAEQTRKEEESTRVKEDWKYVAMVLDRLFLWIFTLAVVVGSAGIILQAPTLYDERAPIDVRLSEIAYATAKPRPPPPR", "experiment": "Agonist activity at nAChR in Heliothis virescens neuronal cells by voltage clamp technique", "format": "functional, cell-based"}, "Spodoptera frugiperda [2]": {"tested_on": "Spodoptera frugiperda", "experiment": "Insecticidal activity against Spodoptera frugiperda at 500 g/ha", "format": "functional, organism-based"}, "Myzus persicae [3]": {"tested_on": "Myzus persicae", "experiment": "Insecticidal activity against Myzus persicae at 500 g/ha", "format": "functional, organism-based"}, "[4]": {"target": "T2, Nicotinic acetylcholine receptor alpha1 subunit (Heliothis virescens) (UniProt O46128)", "T2 sequence (whole entry)": "T1 sequence (O46128 whole entry)", "experiment": "Antagonist activity at nAChR in Heliothis virescens neuronal cells assessed as blockade of acetylcholine-induced response at 10 uM by voltage clamp technique", "format": "functional, cell-based", "design": "scale not given: the % may be the effect or the level left"}, "[5]": {"target": "T1, Nicotinic acetylcholine receptor alpha1 subunit", "experiment": "Antagonist activity at nAChR in Heliothis virescens neuronal cells by voltage clamp technique", "format": "functional, cell-based"}, "Spodoptera frugiperda [6]": {"tested_on": "Spodoptera frugiperda", "experiment": "Insecticidal activity against Spodoptera frugiperda at 4 to 500 g/ha", "format": "functional, organism-based"}, "Myzus persicae [7]": {"tested_on": "Myzus persicae", "experiment": "Insecticidal activity against Myzus persicae at 4 to 500 g/ha", "format": "functional, organism-based"}},
  "note": "Activity calls are given as the source filed them. The calls are words filed in the database; no cut-off is given here.",
  "data": [
    {"smiles": "CCCC[C@]12[C@H]3C[C@H]4[C@H]5[C@H](C)C(C6OC(=O)C(C)=C6OC)O[C@]5(O3)[C@@H]1[C@H](O)CN42", "note": "(stereo partly drawn) [6beta-hydroxystemofoline]", "values": [
      {"measurement": "EC50", "setting": "[1]", "result": 157, "unit": "nM"},
      {"measurement": "Activity", "setting": "Spodoptera frugiperda [2]", "result": "inactive"},
      {"measurement": "Activity", "setting": "Myzus persicae [3]", "result": "inactive"}
    ]},
    {"smiles": "CCCC[C@]12[C@@H]3C[C@H]4[C@H]5[C@H](C)C(C6OC(=O)C(CO)=C6OC)O[C@]5(O3)[C@@H]1CCN42", "note": "(some centres undefined) [16-hydroxystemofoline]", "values": [
      {"measurement": "EC50", "setting": "[1]", "result": 12, "unit": "nM"}
    ]},
    {"smiles": "CC1=C[C@H]([C@H]2O[C@@H]3CCCN4[C@@H](CC[C@H]4[C@@H]4C[C@H](C)C(=O)O4)[C@H]3[C@@H]2C)OC1=O", "note": "(relative stereo)", "values": [
      {"measurement": "Activity", "setting": "[4]", "result": 90, "unit": "%"}
    ]},
    {"smiles": "COC1=C(C)C(=O)O/C1=C(\\O)[C@@H](C)[C@H]1[C@@H](O)CCCN2[C@H]1CC[C@H]2[C@@H]1C[C@H](C)C(=O)O1", "note": "[PROTOSTEMODIOL]", "values": [
      {"measurement": "IC50", "setting": "[5]", "result": 10000, "unit": "nM"}
    ]},
    {"smiles": "CCCC[C@@]12C3CCN1[C@H]1C[C@H]2O[C@@]32O/C(=C3\\OC(=O)C(C)=C3OC)[C@@H](C)[C@H]12", "note": "[STEMOFOLINE]", "values": [
      {"measurement": "EC50", "setting": "[1]", "result": 50, "unit": "nM"},
      {"measurement": "Activity", "setting": "Spodoptera frugiperda [6]", "result": "Active"},
      {"measurement": "Activity", "setting": "Myzus persicae [7]", "result": "Active"}
    ]}
  ]
}
